Measurements published in patent publication US8338424B2, “Guanidine-containing compounds useful as muscarinic receptor antagonists” (Theravance, Inc., priority 2007, dated 2012).

Tests used:
[1] = system: rats (Sprague-Dawley); test: Rat Einthoven assay (bronchoprotection against MCh); format: in vivo; conditions: for ID50 (potency): 1.5 hrs post-dose
Method: All test compounds are diluted in sterile water and are dosed via the inhalation route (IH). The rats (Sprague-Dawley, male, 250-350 g) are exposed to the aerosol generated from an LC Star Nebulizer Set and driven by a mixture of gases (5% CO2/95% atmospheric air). Each test compound solution is nebulized over a 10 minute time period in a pie shaped dosing chamber capable of holding six rats. At predetermined time points after inhalation of compound, the Einthoven assay is performed.
Thirty minutes prior to the start of pulmonary evaluation, the animals are anesthetized with inactin (thiobutabarbital, 120 mg/kg IP). The jugular vein is catheterized with saline filled polyethylene catheters (PE-50) and used to infuse MCh. The trachea is then dissected and cannulated with a 14G needle and used for rat ventilation during pulmonary evaluation. Once surgery is complete, rats are ventilated using a piston respirator set at a stroke volume of 1 ml/100 g body weight but not exceeding 2.5 ml volume, and at a rate of 90 strokes per minute.
The changes in pressure that occur with each breath are measured. Baseline values are collected for at least 2.5 minutes then rats are challenged non-cumulatively with 2-fold incremental increases of the bronchoconstrictor MCh (5, 10, 20, 40 and 80 μg/ml). The MCh is infused for 2.5 minutes from a syringe pump at a rate of 2 mL/kg/min. The animals are euthanized upon completion of the studies.
Changes in ventilation pressure (cm H20) in treated animals are expressed as % inhibition of MCh response relative to control animals.
Standard muscarinic antagonists were evaluated in the rat Einthoven assay 1.5 hrs post-dose.
Standards tiotropium and ipratropium were also evaluated 24 hr and/or 6 hr post-dose in the rat Einthoven assay. […] The observed loss of activity at this time point (6 hr) is consistent with its relatively short duration of action in the clinic.

[2] = system: rats (Sprague-Dawley); test: Rat antisialagogue assay (pilocarpine-induced salivation); format: in vivo; conditions: evaluated at 1, 6, and 24 hr post-dose
Method: Rats (Sprague-Dawley, male, 250-350 g) are dosed, anesthetized and cannulated as described for Assay 3. At predetermined time points and after surgery, animals are placed on their dorsal side at a 20° incline with their head in a downward slope. A pre-weighed gauze pad is inserted in the animal's mouth and the muscarinic agonist pilocarpine (PILO) (3 mg/kg, iv.) is administered. Saliva produced during 10 minutes post-PILO is measured gravimetrically by determining the weight of the gauze pad before and after PILO. Antisialagogue effects are expressed as % inhibition of salivation relative to control animals.
The rat antisialagogue assay was developed to assess systemic exposure and calculate the lung selectivity index (LSI) of test compounds. The standard, tiotropium, was evaluated in this model at 1, 6, and 24 hr post-dose. […] This finding is consistent with the peak effects observed in the Einthoven assay.
This model is a modified version of the procedure described in Rechter, “Estimation of anticholinergic drug effects in mice by antagonism against pilocarpine-induced salivation” Ata Pharmacol Toxicol 24:243-254 (1996). The mean weight of saliva in vehicle-treated animals, at each pre-treatment time, is calculated and used to compute % inhibition of salivation, at the corresponding pre-treatment time, at each dose.

Structure (SMILES)	ID50 (potency) ([1]; inhalation) [µg/mL]	fold less potent 6-hr post-dose compared to 1.5 hr potency ([1]; 6-hr post-dose, 10 and 30 μg/ml)	6 hr versus 24 hr potency values ([1]; 6 hr and 24 hr post-dose)	fold more potent at 6 hr and 24 hr compared to 1.5 hr potency ([1]; 6 hr and 24 hr post-dose)	time of peak bronchoprotection post-dose ([1]; inhalation) [h]	time post dose at which most potent at inhibiting pilocarpine-induced salivation [2] [h]
C[N+]1(C)CCC(OC(=O)C(O)(c2ccccc2)C2CCCC2)C1 (centres unmarked) [glycopyrrolate]	15	–	–	–	–	–
CC(C)[N+]1(C)[C@@H]2CC[C@H]1C[C@@H](OC(=O)C(CO)c1ccccc1)C2 (some centres unmarked) [ipratropium]	4.4	about 3 fold	–	–	–	–
C[N+]1(C)[C@@H]2C[C@@H](OC(=O)C(O)(c3cccs3)c3cccs3)C[C@H]1[C@@H]1O[C@@H]12 [tiotropium]	6	–	not significantly different from each other	about 2 fold	6	6
